Assay results taken from US20260226037A1, “MICROTUBULE TARGETING AGENTS” (ARIEL SCIENTIFIC INNOVATIONS LTD., priority 2022, published 2026).

Columns and labels:
RPMI 8226 cells = assay: XTT cytotoxicity, RPMI 8226; format: cell-based; conditions: Homo sapiens; RPMI 8226, multiple myeloma, non-resistant; read-out: IC50
Procedure: (§1) The cytotoxic activity of the novel family was evaluated against various tumor cells, including myeloma cells, acute lymphoblastic leukemia cells, acute monocytic leukemia cells, chronic myelogenous leukemia cells, pancreatic cancer cells, breast cancer cells, uterine sarcoma cells, cervix adenocarcinoma cells, ovary cancer cells, melanoma cells, osteosarcoma cells, prostate cancer cells, lung cancer cells, neuroblastoma cells and colorectal adenocarcinoma cells by XTT assay.

RPMI-DOX40 cells = assay: XTT cytotoxicity, RPMI-DOX40; format: cell-based; conditions: for IC50: RPMI-DOX40, multiple myeloma, P-gp overexpression, read-out: IC50; for IC50 ratio between resistant and non-resistant cells: RPMI-DOX40 / RPMI 8226
Procedure: as §1

RPMI-LR5 cells = assay: XTT cytotoxicity, RPMI-LR5; format: cell-based; conditions: for IC50: RPMI-LR5, multiple myeloma, melphalan resistant, read-out: IC50; for IC50 ratio between resistant and non-resistant cells: RPMI-LR5 / RPMI 8226
Procedure: as §1

RPMI-MR20 cells = assay: XTT cytotoxicity, RPMI-MR20; format: cell-based; conditions: for IC50: RPMI-MR20, mitoxantrone resistant, read-out: IC50; for IC50 ratio between resistant and non-resistant cells: RPMI-MR20 / RPMI 8226
Procedure: as §1

MM1.S cells = assay: XTT cytotoxicity, MM1.S; format: cell-based; conditions: Homo sapiens, multiple myeloma, non-resistant, read-out: IC50
Procedure: as §1

MM1.R cells = assay: XTT cytotoxicity, MM1.R; format: cell-based; conditions: for IC50 ratio between resistant and non-resistant cells: MM1.R / MM1.S; for IC50: MM.1R, MM1.R, multiple myeloma, dexamethasone resistant, read-out: IC50
Procedure: as §1

NALM6 cells = assay: XTT cytotoxicity, NALM6; format: cell-based; conditions: Homo sapiens, NALM-6; NALM6, acute lymphoblastic leukemia, non-resistant; read-out: IC50
Procedure: as §1
(§2) Most tubulin-binding anticancer drugs currently used in the clinic are substrates for Pgp effux pump. […] The inventors tested the viability of NALM6 acute lymphoblastic leukemia cell line (ALL) and its corresponding doxorubicin resistant N6/ADR cell line that overexpress Pgp glycoprotein and has cross-resistance to vincristine.

N6/ADR cells = assay: XTT cytotoxicity, N6/ADR; format: cell-based; conditions: for IC50 ratio between resistant and non-resistant cells: N6/ADR / NALM6; for IC50: N6/ADR, acute lymphoblastic leukemia, P-gp overexpression, read-out: IC50
Procedure: as §1, §2

MCF7 cells = assay: XTT cytotoxicity, MCF7; format: cell-based; conditions: Homo sapiens; MCF7, breast adenocarcinoma, non-resistant
Procedure: as §1

MCF7-VP cells = assay: XTT cytotoxicity, MCF7-VP; format: cell-based; conditions: for IC50: Homo sapiens, MCF7-VP, breast adenocarcinoma, MRP overexpression; for IC50 ratio between resistant and non-resistant cells: MCF7-VP / MCF7
Procedure: as §1

MES-SA cells = assay: XTT cytotoxicity, MES-SA; format: cell-based; conditions: Homo sapiens, poorly differentiated uterine sarcoma, non-resistant
Procedure: as §1

MES-SA/DX5 cells = assay: XTT cytotoxicity, MES-SA/DX5; format: cell-based; conditions: for IC50: Homo sapiens, MES-SA/DX5, uterine sarcoma, P-gp overexpression; for IC50 ratio between resistant and non-resistant cells: MES-SA/DX5 / MES-SA
Procedure: as §1

purified tubulin = assay: Tubulin polymerization, cell-free assay; format: biochemical; conditions: tubulin 2.00 mg/mL; 1, 15 and 30 μM; 37° C., 100 min; vs vehicle
Procedure: The effect of the compounds on their ability to inhibit tubulin polymerization, was tested against a vehicle control by evaluating polymerization of purified tubulin in a cell-free assay where tubulin (2.00 mg/mL) was exposed to vehicle control or 1, 15 and 30 μM of the compounds (n=2). Polymerizations were tracked by an increase in fluorescence excitation wavelength is 340-360 nm and emission wavelength at 410-460 nm. Fluorescence was monitored at 37° C. every 30 sec for 100 min.

[1] = test system: colchicine binding site on tubulin protein; assay: EBI competition assay, RPMI-8226 cells; format: cell-based; conditions: for prevention of covalent binding of EBI to the colchicine binding site: RPMI-8226 living cells
RPMI8226 cells = assay: Cell cycle distribution by flow cytometry; format: cell-based; conditions: 6 hours; IC50, IC50x2.5 and IC50x5 concentrations
Procedure: Cell cycle arrest is a shared consequence of MTAs treatment. The effects of cell cycle distribution were determined in RPMI8226 cells treated for 6 and 18 hours with a range of concentrations of the molecules. The cells were stained with propidium iodide and cell cycle distribution was measured using a cytoFLEX flow cytometer.

Row | SMILES | IC50 (RPMI 8226 cells) | IC50 (RPMI-DOX40 cells) | IC50 ratio between resistant and non-resistant cells (RPMI-DOX40 cells) | IC50 (RPMI-LR5 cells) | IC50 ratio between resistant and non-resistant cells (RPMI-LR5 cells) | IC50 (RPMI-MR20 cells) | IC50 ratio between resistant and non-resistant cells (RPMI-MR20 cells) | IC50 (MM1.S cells) | IC50 ratio between resistant and non-resistant cells (MM1.R cells) | IC50 (MM1.R cells) | IC50 (NALM6 cells) | IC50 ratio between resistant and non-resistant cells (N6/ADR cells) | IC50 (N6/ADR cells) | IC50 (MCF7 cells) | IC50 (MCF7-VP cells) | IC50 ratio between resistant and non-resistant cells (MCF7-VP cells) | IC50 (MES-SA cells) | IC50 (MES-SA/DX5 cells) | IC50 ratio between resistant and non-resistant cells (MES-SA/DX5 cells) | rate of tubulin polymerization (purified tubulin) | other results
1 | Cc1c(C(=O)OCCCCO)[nH]c2c1C(=O)CC(c1ncco1)C2 (stereo not shown) [SMS096, 4-hydroxybutyl 3-methyl-6-(oxazol-2-yl)-4-oxo-4,5,6,7-tetrahydro-1H-indole-2-carboxylate] | 1090 nM | 1180 nM | 1.081 | 1130 nM | 1.031 | > 1800 nM | >1.647 | 748 nM | 1.447 | 1080 nM | 624 nM | 0.087 | 54 nM | 7840 nM | 5740 nM | 0.732 | 1240 nM | 1430 nM | 1.153 | inhibited the rate of tubulin polymerization in a concentration-dependent manner | relative affinity for the colchicine binding site ([1]; RPMI-8226 cells, EBI competition): higher affinity than SMS001, SMS182, SMS088 and SMS229; prevention of covalent binding of EBI to the colchicine binding site [1]: prevented the covalent binding of EBI to the colchicine binding site; cell cycle arrest (RPMI8226 cells): cell cycle arrest in G2M phase
2 | Cc1c(C(=O)OC2CCCC2)[nH]c2c1C(=O)CC(c1ncco1)C2 (stereo not shown) [SMS101, cyclopentyl 3-methyl-6-(oxazol-2-yl)-4-oxo-4,5,6,7-tetrahydro-1H-indole-2-carboxylate] | 90 nM | 77 nM | 0.856 | 73 nM | 0.811 | 99 nM | 1.100 | 129 nM | 3.953 | 510 nM | 48 nM | 0.875 | 42 nM | 11900 nM | 351 nM | 0.029 | 186 nM | 213 nM | 1.145 | inhibited the rate of tubulin polymerization in a concentration-dependent manner | prevention of covalent binding of EBI to the colchicine binding site [1]: prevented the covalent binding of EBI to the colchicine binding site; cell cycle arrest (RPMI8226 cells): cell cycle arrest in G2M phase
3 | CCCCCOC(=O)c1[nH]c2c(c1C)C(O)CC(c1ncco1)C2 (stereo not shown) [SMS108, pentyl-4-hydroxy-3-methyl-6-(oxazol-2-yl)-4,5,6,7-tetrahydro-1H-indole-2-carboxylate] | 516 nM | 498 nM | 0.965 | 427 nM | 0.828 | 388 nM | 0.752 | 735 nM | 1.633 | 1200 nM | 345 nM | 0.957 | 330 nM | 7120 nM | 5900 nM | 0.828 | 700 nM | 490 nM | 0.700 | inhibited the rate of tubulin polymerization in a concentration-dependent manner | prevention of covalent binding of EBI to the colchicine binding site [1]: did not prevent the covalent binding of EBI to the colchicine binding site; cell cycle arrest (RPMI8226 cells): cell cycle arrest in G2M phase
4 | Cc1c(C(=O)OCCCCO)oc2c1C(=O)CC(c1ncco1)C2 (stereo not shown) [SMS229, 4-hydroxybutyl-3-methyl-6-(oxazol-2-yl)-4-oxo-4,5,6,7-tetrahydrobenzofuran-2-carboxylate] | 808 nM | 933 nM | 1.155 | 958 nM | 1.186 | 1550 nM | 1.916 | 2050 nM | >0.779 | > 1600 nM | 590 nM | 1.136 | 670 nM | 33300 nM | 12000 nM | 0.360 | 4560 nM | 3190 nM | 0.700 | inhibited the rate of tubulin polymerization in a concentration-dependent manner | prevention of covalent binding of EBI to the colchicine binding site [1]: prevented the covalent binding of EBI to the colchicine binding site
